Legend:
Type in all cases: functional
U-251 = experiment: Growth inhibition of human U251 cells assessed as cell growth at 10^-6 M after 48 hrs by sulforhodamine B assay; settings: U-251, 48 h, read-out: Activity
HL-60(TB) [1] = experiment: Growth inhibition of human HL-60(TB) cells assessed as cell growth at 10^-4 M after 48 hrs by sulforhodamine B assay; settings: HL-60, 48 h, read-out: Activity
RXF 393 = experiment: Growth inhibition of human RXF393 cells assessed as cell growth at 10^-5 M after 48 hrs by sulforhodamine B assay; settings: RXF 393, 48 h, read-out: Activity
SNB-19 = experiment: Growth inhibition of human SNB19 cells assessed as cell growth at 10^-4 M after 48 hrs by sulforhodamine B assay; settings: SNB-19, 48 h, read-out: Activity
SK-MEL-5 = experiment: Growth inhibition of human SK-MEL-5 cells assessed as cell growth at 10^-6 M after 48 hrs by sulforhodamine B assay; settings: SK-MEL-5, 48 h, read-out: Activity
SN12C [2] = experiment: Growth inhibition of human SN12C cells assessed as cell growth at 10^-8 M after 48 hrs by sulforhodamine B assay; settings: read-out: Activity
SN12C [3] = experiment: Growth inhibition of human SN12C cells assessed as cell growth at 10^-4 M after 48 hrs by sulforhodamine B assay; settings: read-out: Activity
NCI-H460 [4] = experiment: Growth inhibition of human NCI-H460 cells assessed as cell growth at 10^-4 M after 48 hrs by sulforhodamine B assay; settings: NCI-H460, 48 h, read-out: Activity
OVCAR-5 = experiment: Growth inhibition of human OVCAR5 cells assessed as cell growth at 10^-6 M after 48 hrs by sulforhodamine B assay; settings: OVCAR-5, 48 h, read-out: Activity
ACHN = experiment: Growth inhibition of human ACHN cells assessed as cell growth at 10^-6 M after 48 hrs by sulforhodamine B assay; settings: read-out: Activity
SNB-75 = experiment: Growth inhibition of human SNB75 cells assessed as cell growth at 10^-4 M after 48 hrs by sulforhodamine B assay; settings: SNB-75, 48 h, read-out: Activity
NCI-H460 [5] = experiment: Growth inhibition of human NCI-H460 cells assessed as cell growth at 10^-8 M after 48 hrs by sulforhodamine B assay; settings: NCI-H460, 48 h, read-out: Activity
NCI-H522 = experiment: Growth inhibition of human NCI-H522 cells assessed as cell growth at 10^-4 M after 48 hrs by sulforhodamine B assay; settings: NCI-H522, 48 h, read-out: Activity
CCRF-CEM = experiment: Growth inhibition of human CCRF-CEM cells assessed as cell growth at 10^-4 M after 48 hrs by sulforhodamine B assay; settings: read-out: Activity
MCF7 = experiment: Growth inhibition of human MCF7 cells assessed as cell growth at 10^-7 M after 48 hrs by sulforhodamine B assay; settings: MCF7, 48 h, read-out: Activity
SK-MEL-28 = experiment: Growth inhibition of human SK-MEL-28 cells assessed as cell growth at 10^-7 M after 48 hrs by sulforhodamine B assay; settings: SK-MEL-28, 48 h, read-out: Activity
T47D = experiment: Growth inhibition of human T47D cells assessed as cell growth at 10^-5 M after 48 hrs by sulforhodamine B assay; settings: read-out: Activity
SK-OV-3 = experiment: Growth inhibition of human SKOV3 cells assessed as cell growth at 10^-4 M after 48 hrs by sulforhodamine B assay; settings: SK-OV-3, 48 h, read-out: Activity
M14 [6] = experiment: Growth inhibition of human M14 cells assessed as cell growth at 10^-7 M after 48 hrs by sulforhodamine B assay; settings: M14, 48 h, read-out: Activity
[7] = Growth inhibition of human HCC2998 cells assessed as cell growth at 10^-6 M after 48 hrs by sulforhodamine B assay; settings: HCC 2998, 48 h, read-out: Activity
KM12 = experiment: Growth inhibition of human KM12 cells assessed as cell growth at 10^-5 M after 48 hrs by sulforhodamine B assay; settings: KM12, 48 h, read-out: Activity
A549 = experiment: Growth inhibition of human A549/ATCC cells assessed as cell growth at 10^-7 M after 48 hrs by sulforhodamine B assay; settings: A549, 48 h, read-out: Activity
SK-MEL-2 = experiment: Growth inhibition of human SK-MEL-2 cells assessed as cell growth at 10^-6 M after 48 hrs by sulforhodamine B assay; settings: SK-MEL-2, 48 h, read-out: Activity
UACC-62 = experiment: Growth inhibition of human UACC62 cells assessed as cell growth at 10^-4 M after 48 hrs by sulforhodamine B assay; settings: UACC-62, 48 h, read-out: Activity
OVCAR-3 = experiment: Growth inhibition of human OVCAR3 cells assessed as cell growth at 10^-5 M after 48 hrs by sulforhodamine B assay; settings: OVCAR-3, 48 h, read-out: Activity
HL-60(TB) [8] = experiment: Growth inhibition of human HL-60(TB) cells assessed as cell growth at 10^-6 M after 48 hrs by sulforhodamine B assay; settings: HL-60, 48 h, read-out: Activity
CAKI-1 = experiment: Growth inhibition of human CAKI-1 cells assessed as cell growth at 10^-8 M after 48 hrs by sulforhodamine B assay; settings: CAKI-1, 48 h, read-out: Activity
MDA-MB-435 = experiment: Growth inhibition of human MDA-MB-435 cells assessed as cell growth at 10^-7 M after 48 hrs by sulforhodamine B assay; settings: MDA-MB-435, 48 h, read-out: Activity
DU-145 = experiment: Growth inhibition of human DU145 cells assessed as cell growth at 10^-4 M after 48 hrs by sulforhodamine B assay; settings: DU-145, 48 h, read-out: Activity
UACC-257 = experiment: Growth inhibition of human UACC257 cells assessed as cell growth at 10^-4 M after 48 hrs by sulforhodamine B assay; settings: UACC-257, 48 h, read-out: Activity
IGROV-1 = experiment: Growth inhibition of human IGROV1 cells assessed as cell growth at 10^-5 M after 48 hrs by sulforhodamine B assay; settings: IGROV-1, 48 h, read-out: Activity
HCT-116 = experiment: Growth inhibition of human HCT116 cells assessed as cell growth at 10^-5 M after 48 hrs by sulforhodamine B assay; settings: HCT-116, 48 h, read-out: Activity
TK-10 = experiment: Growth inhibition of human TK10 cells assessed as cell growth at 10^-8 M after 48 hrs by sulforhodamine B assay; settings: TK-10, 48 h, read-out: Activity
NCI-H23 = experiment: Growth inhibition of human NCI-H23 cells assessed as cell growth at 10^-8 M after 48 hrs by sulforhodamine B assay; settings: NCI-H23, 48 h, read-out: Activity
M14 [9] = experiment: Growth inhibition of human M14 cells assessed as cell growth at 10^-6 M after 48 hrs by sulforhodamine B assay; settings: M14, 48 h, read-out: Activity
HT-29 = experiment: Growth inhibition of human HT-29 cells assessed as cell growth at 10^-8 M after 48 hrs by sulforhodamine B assay; settings: HT-29, 48 h, read-out: Activity

SMILES | growth at 1 µM (U-251) | growth at 100 µM (HL-60(TB) [1]) | growth at 10 µM (RXF 393) | growth at 100 µM (SNB-19) | growth at 1 µM (SK-MEL-5) | growth at 0.01 µM (SN12C [2]) | growth at 100 µM (SN12C [3]) | growth at 100 µM (NCI-H460 [4]) | growth at 1 µM (OVCAR-5) | growth at 1 µM (ACHN) | growth at 100 µM (SNB-75) | growth at 0.01 µM (NCI-H460 [5]) | growth at 100 µM (NCI-H522) | growth at 100 µM (CCRF-CEM) | growth at 0.1 µM (MCF7) | growth at 0.1 µM (SK-MEL-28) | growth at 10 µM (T47D) | growth at 100 µM (SK-OV-3) | growth at 0.1 µM (M14 [6]) | growth at 1 µM [7] | also measured
COc1cc(-c2nn(-c3cccc(NC(=O)c4ccc(N5CCOCC5)c(C(F)(F)F)c4)c3)cc2-c2ccncc2)ccc1Cl | 25% | 6% | -41% | 15% | -11% | 95% | 11% | 1% | 57% | 39% | 2% | 100% | -23% | 8% | 76% | 68% | 19% | -28% | 76% | 52% | growth at 10 µM (KM12): -6%; growth at 0.1 µM (A549): 69%; growth at 1 µM (SK-MEL-2): 24%; growth at 100 µM (UACC-62): -32%; growth at 10 µM (OVCAR-3): -36%; growth at 1 µM (HL-60(TB) [8]): 24%; growth at 0.01 µM (CAKI-1): 94%; growth at 0.1 µM (MDA-MB-435): -4%; growth at 100 µM (DU-145): 2%; growth at 100 µM (UACC-257): -31%; growth at 10 µM (IGROV-1): -7%; growth at 10 µM (HCT-116): 8%; growth at 0.01 µM (TK-10): 99%; growth at 0.01 µM (NCI-H23): 97%; growth at 1 µM (M14 [9]): 35%; growth at 0.01 µM (HT-29): 98%
COc1cc(-c2nn(-c3cccc(NC(=O)c4ccccc4)c3)cc2-c2ccncc2)ccc1Cl | 40% | 16% | -9% | 13% | 10% | 96% | 36% | 5% | 87% | 44% | 11% | 102% | 6% | 16% | 87% | 94% | 31% | 19% | 92% | 75% | growth at 10 µM (KM12): 10%; growth at 0.1 µM (A549): 94%; growth at 1 µM (SK-MEL-2): 22%; growth at 100 µM (UACC-62): 19%; growth at 10 µM (OVCAR-3): 2%; growth at 1 µM (HL-60(TB) [8]): 27%; growth at 0.01 µM (CAKI-1): 94%; growth at 0.1 µM (MDA-MB-435): 80%; growth at 100 µM (DU-145): -5%; growth at 100 µM (UACC-257): 24%; growth at 10 µM (IGROV-1): 28%; growth at 10 µM (HCT-116): 17%; growth at 0.01 µM (TK-10): 93%; growth at 0.01 µM (NCI-H23): 92%; growth at 1 µM (M14 [9]): 37%; growth at 0.01 µM (HT-29): 98%

— ChEMBL document CHEMBL2440076, “New triarylpyrazoles as broad-spectrum anticancer agents: design, synthesis, and biological evaluation” (Eur J Med Chem, 2013)
